Source: patent US20150157783A1, “METHOD TO SELECTIVELY BIND AND EXTRACT PHOSPHATE” (priority 2013, published 2015)

How the values were obtained:
[1] = UV-Vis titration, 1:1 binding of dihydrogen phosphate (Bu4N+ salt) in aqueous DMSO; settings: for Binding constant (1:1) to H2PO4^−: 25% aqueous DMSO (v/v)
Method: (§1) Their interactions with anion salts were investigated in various aqueous dimethylsulfoxide (DMSO) mixtures.
(§2) Dilute non-aggregating solutions of a receptor S were titrated with a given anion X^− via a solution of its tetrabutylammonium salt and were monitored by UV-VIS spectrometery. UV absorption spectra (250-600 nm) were recorded three times for each solution and average values for each point were used; all of the spectra were background corrected by subtracting the absorption of the solvent. The wavelength with the maximum change in the concentration corrected absorption (Acor=A·C0/C, where C and C0 are the current and the initial receptor concentrations) was determined and then used for further analysis. Absorptions were plotted versus anion concentrations and the binding constants were determined by an iterative non-linear least squares curve fitting routine implemented in Excel using the equations below. Observed and calculated absorptions are given for each titration in the corresponding Tables and Figures.
(§3) K: binding constant for 1:1 complex formation
(§4) [S]:free receptor concentration
(§5) [S]0:total receptor concentration
(§6) [SX]:bound receptor concentration
(§7) [X]0:total anion concentration
(§8) A: absorption of the solution
(§9) A0:absorption of the initial solution (no anion added)
(§10) Amax:absorption of the solution if all the receptor was bound (infinite excess of anion at the initial receptor concentration)
(§11) In cases where there is a large excess of the anion, [X] about equals [X]0, and the plot of ΔAcor/[X] versus ΔAcor gives a straight line where the slope of the linear least squares fit of the data is the binding constant (K) and the intercept is K·ΔAmax:
(§12) with ΔAcor=(A−A0)·C0/C, where C and C0 are the current and the initial receptor concentrations; ΔAmax=Amax−A0.

[2] = UV-Vis titration, 1:1 binding of acetate (Bu4N+ salt) in aqueous DMSO; settings: for Binding constant (1:1) to OAc^−: 25% aqueous DMSO (v/v)
Method: as §1, §2, §3, §4, §5, §6, §7, §8, §9, §10, §11, §12

[3] = Solubility of receptor (qualitative)
[4] = UV-Vis titration, 1:1 binding of chloride (Bu4N+ salt) in aqueous DMSO; settings: 25% aqueous DMSO (v/v)
Method: as §1, §2, §3, §4, §5, §6, §7, §8
A0:absorption of the initial solution (no anion added) […]

Row | SMILES | K1-bis/K1-mono for dihydrogen phosphate ([1]; 25% aqueous DMSO) | Binding constant (1:1) to H2PO4^− [1] [M⁻¹] | Binding constant (1:1) to OAc^− [2] [M⁻¹] | Binding constant K of 1:1 adduct with H2PO4^− ([1]; 0.5% DMSO-H2O mixture, 0-1 equivalents of anion) [M⁻¹] | association constant relative to the statistical value (36 M^−1) expected for one-arm binding of H2PO4^− ([1]; 25% aqueous DMSO) | acetate binding strength relative to 1-mono ([2]; 25% aqueous DMSO) | solubility [3] | Binding constant (1:1) to Cl^− [4] [M⁻¹]
1 | O=[N+]([O-])c1ccc(NC(=S)Nc2ccccc2-c2cccc(-c3ccccc3NC(=S)Nc3ccc([N+](=O)[O-])cc3)c2)cc1 [1-bis, 1,3-bis[2-(3-(4—Nitrophenyl)thioureido)phenyl]benzene] | about 2 | 28 |  |  |  |  |  | 
2 | O=[N+]([O-])c1ccc(NC(=S)Nc2ccccc2)cc1 [1-mono, 1-(4—Nitrophenyl)-3-phenylthiourea] |  | 12 | 12 |  |  |  |  | 
3 | O=[N+]([O-])c1ccc(NC(=S)Nc2ccccc2-c2cc(-c3ccccc3NC(=S)Nc3ccc([N+](=O)[O-])cc3)cc(-c3ccccc3NC(=S)Nc3ccc([N+](=O)[O-])cc3)c2)cc1 [1-tris, 1,3,5-tris[2-(3-(4—Nitrophenyl)thioureido)phenyl]benzene] |  | 4000 | 35 | > 5e+06 | more than 100 fold | three times more strongly | low solubility | 1
4 | FC(F)(F)c1cc(NC(=S)Nc2ccccc2-c2cc(-c3ccccc3NC(=S)Nc3cc(C(F)(F)F)cc(C(F)(F)F)c3)cc(-c3ccccc3NC(=S)Nc3cc(C(F)(F)F)cc(C(F)(F)F)c3)c2)cc(C(F)(F)F)c1 [2-tris, 1,3,5-tris[2-(3-(3,5-Trifluoromethylphenyl)thioureido)phenyl]benzene] |  | 10000 |  |  |  |  | more soluble | 
